# Results taken from patent US9771368B2, “18F-labelled folates” (priority 2007, dated 2017).
# Tests used:
# [1] = test system: folate receptor; experiment: in vivo PET imaging in nude mice bearing KB xenografts tumors
# Experimental: In vivo PET imaging using the 2′-[^18F]fluoro-folic acid was performed in nude mice bearing KB xenografts tumors. Ca. 10 MBq of the radiotracer were injected into each animal. In the blockade group 200 μg natural folic acid was injected 10 min prior to the radiotracer. The PET scans were acquired from 30 min to 90 min post injection.
# [2] = test system: folate receptor; experiment: ex vivo biodistribution studies in nude mice bearing KB xenografts tumors
# Experimental: (§1) 2′-[^18F]fluoro-folic acid was applied in ex vivo biodistribution studies using eight nude mice bearing KB xenografts tumors. ˜2 MBq of the radiotracer were injected into each animal. In a blockade group 200 μg natural folic acid was injected 10 min prior to the radiotracer. The animals were scarified 90 min post injection.
# [3] = target: T1, folate receptor (Homo sapiens, UniProt P15328); experiment: as above; details: nude mice, KB xenograft tumors; ~2 MBq radiotracer; blockade group 200 μg natural folic acid 10 min prior; 90 min post injection
# T1 construct: endogenous in cells; host or cells: KB tumour xenografts in nude mice
# T1 sequence (P15328 25-234 limits assumed): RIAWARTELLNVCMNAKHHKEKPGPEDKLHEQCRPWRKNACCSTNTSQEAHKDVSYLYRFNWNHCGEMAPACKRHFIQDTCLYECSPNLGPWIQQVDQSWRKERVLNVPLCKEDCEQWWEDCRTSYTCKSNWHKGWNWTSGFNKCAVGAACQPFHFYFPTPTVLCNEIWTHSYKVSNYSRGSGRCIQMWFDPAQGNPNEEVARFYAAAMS
# Experimental: as §1
smiles,measurement,setting,value
Nc1nc2ncc(CNc3ccc(C(=O)N[C@@H](CCC(=O)O)C(=O)O)c([18F])c3)nc2c(=O)[nH]1 [2′-[^18F]fluoro-folic acid],uptake of the radiotracer in the kidney cortex,"[1]; PET, kidney cortex, 30-90 min post injection",high specific uptake
same,uptake of the radiotracer in the kidney medulla,"[1]; PET, kidney medulla, 30-90 min post injection",no uptake
same,specificity of uptake (blockade by natural folic acid),"[1]; ca. 10 MBq, blockade group 200 μg natural folic acid 10 min prior, PET 30-90 min post injection",highly specific and blocked by natural folic acid
same,uptake in folate receptor-positive tissues (FIG. 1),"[2]; ex vivo biodistribution, nude mice bearing KB xenografts",high specific uptake
same,"specific uptake in the kidneys, specific blockade","[2]; nude mice, kidneys, ~2 MBq radiotracer, blockade group 200 μg natural folic acid 10 min prior, 90 min post injection",95.5%
same,"specific uptake of the radiotracer in folate receptor-positive KB tumors, ratio of specific blockade",[3],86.6%
